Data reported in US20250072423A1, “THIOPHENE ACETIC ACID FOR PLANT GROWTH REGULATION” (priority 2023, published 2025).

Assays:
AtIAA5 (AT1G15580) = experiment: qRT-PCR of early auxin-responsive gene AtIAA5 (Experiment 9); type: in vivo, A. thaliana; conditions: 5 and 10 μM TAA
Protocol: (§1) To analyze TAA responsive genes in Arabidopsis, WT Arabidopsis seeds were germinated as described and 14-day-old uniform-looking seedlings were initially acclimatized in liquid germination medium for 2 hours before transferring to medium containing different concentrations of TAA (5 and 10 μM). Seedlings in media supplemented with DMSO were used as control. Five random seedlings were selected and considered as one sample and three samples from both control and treatments were flash frozen in liquid nitrogen and total RNA was isolated using a TRIzol reagent (ThermoFisher Scientific, Cat #15596026).
(§2) Expression levels of seven previously reported early auxin-responsive genes were verified by qRT-PCR (quantitative reverse transcription polymerase chain reaction). RNA reverse transcription was performed using QuantiTect Reverse Transcription Kit (Qiagen). Three biological replicates and three technical replicates were used for all qRT-PCRs. Arabidopsis actin gene (AT3G18780) was used as internal reference.

tobacco leaf explants = experiment: Shoot organogenesis from tobacco leaf explants in vitro (Experiment 4); type: cell-based, Nicotiana tabacum L. cv. Petit Havana SRI; conditions: 8 weeks
[1] = system: tomato cotyledon explants; experiment: Shoot regeneration from tomato cotyledon explants with 1 mg/L BAP (Experiment 3); type: cell-based, tomato cultivar Roma VF
Source text: The sterilized seeds were germinated on half-strength Murashige and Skoog (MS) medium in vitro. Cotyledons from 10-day old seedlings before first true leaves emerged were used as starting explants in all the experiments. The base and tip of the cotyledons were excised and the explants were transferred with the abaxial surface in contact with the culture medium. The basic culture medium consists of MS medium with vitamins supplemented with 30 g/L sucrose and gelled with 0.8% agar, and the pH of the medium was adjusted to 5.8±0.2. […] All experiments were conducted with at least three replicates of 10 explants each.
To analyse the effects on shoot regeneration, the basic media was supplemented with 1 mg/L BAP and different concentrations of TAA, IAA, NAA, IBA and 2,4 D (0.05, 0.1, 0.5, 1.0 and 2.0 mg/L) individually. Since there are no previous reports on suitable concentration ranges for TAA in tomato regeneration, concentrations at 50.0, 100.0, 200.0 and 300.0 mg/L were analysed additionally for TAA.

AtPIN1 (AT1G73590) = experiment: qRT-PCR of early auxin-responsive gene AtPIN1 (Experiment 9); type: in vivo, A. thaliana; conditions: 10 μM TAA, after 6 hours
Protocol: as §1, §2

WT Arabidopsis seedlings = experiment: Root growth of WT Arabidopsis seedlings (Experiment 6); type: in vivo, A. thaliana
Protocol: Arabidopsis Columbia-0 wild type (WT) was used for assessing the effect of TAA on root growth and its effects on the expression of auxin-responsive genes. Seeds of A. thaliana were surface sterilized by suspending in 70% ethanol for 1 minute, followed by treatment with 10% bleach for 20 minutes. After thorough washing with sterile distilled water, the sterilized seeds were plated onto germination medium (half-strength Murashige and Skoog basal medium with vitamins (1/2 MS) medium supplemented with 1% sucrose and 0.7% plant agar) for germination. Germination was initiated by incubating the seeds in darkness at 5° C. for 2 days, followed by transfer to a light environment at 22° C. with a photoperiod of 16-h light/8-h dark for further growth. Stock solutions of TAA were prepared in DMSO (dimethyl sulfoxide). In control treatments, DMSO was used in equal amounts as present in the greatest concentration of TAA tested.
To analyze the effect of TAA on root growth, WT Arabidopsis seedlings were germinated as described and uniform-looking 8-day-old seedlings were transferred to germination medium supplemented with different concentrations of TAA (0.1, 1, 2, 5, 10, 25, 50, and 100 μM) or NAA/IAA/IBA (0.05, 0.1, 1, 2 and 5 μM). For IBA, two additional concentrations (10 and 25 μM) were also analyzed. Seedlings grown on media supplemented with an equal volume of DMSO were used as control. The seedlings were allowed to grow for 6 days and the plates were photographed at 24 h intervals. Primary root length was measured using Image J software. The difference in the number of lateral roots (LR) and root hairs was visually observed. Microscopic images were taken on a Leica Thunder Imager System (Leica Microsystems Ltd., Switzerland) and the images were processed with LAS X software.

O=C(O)Cc1ccsc1 [TAA]
AtIAA5 expression (AtIAA5 (AT1G15580)): induction
number of shoots regenerated per explant versus basic shoot regeneration media (tobacco leaf explants; 1 mg/L TAA with 2 mg/L kinetin): 3 times
total number of shoots regenerated versus basic shoot regeneration media (tobacco leaf explants; 1 mg/L TAA with 2 mg/L kinetin): 3 times
number of shoots regenerated per explant versus basic shoot regeneration media (tobacco leaf explants; 2 mg/L TAA with 2 mg/L kinetin): 3 times
total number of shoots regenerated versus basic shoot regeneration media (tobacco leaf explants; 2 mg/L TAA with 2 mg/L kinetin): 3 times
number of regenerated shoots versus basic shoot regeneration media (tobacco leaf explants; 3 mg/L TAA with 2 mg/L kinetin): more than double
number of regenerated shoots versus basic shoot regeneration media (tobacco leaf explants; 5 mg/L TAA with 2 mg/L kinetin): more than double
effect on shoot regeneration and size of regenerated shoots (tobacco leaf explants; TAA added to 3% MS + 2 mg/L kinetin): positive effect
time to necrosis of explants ([1]; 300 mg/L with 1 mg/L BAP): ≤ 7 days
survival of explants ([1]; 300 mg/L with 1 mg/L BAP, by Day 28): all explants were dead
shoot organogenesis ([1]; 50.0, 100.0 and 200.0 mg/L with 1 mg/L BAP): did not show any shoot or root formation
AtPIN1 gene expression (AtPIN1 (AT1G73590)): nearly five-fold
length of the primary root relative to control (WT Arabidopsis seedlings; 50 μM, after 6 days of treatment, 8-day-old seedlings): 50%
number and elongation of lateral roots (LR) (WT Arabidopsis seedlings; higher concentrations (5 μM and above)): reduced the number of LR and inhibited the elongation of LR
effect on primary root length (WT Arabidopsis seedlings; low concentration range (FIG. 8a)): promoter role
number of lateral roots (LR) (WT Arabidopsis seedlings; lower concentrations of TAA): increased
